In BindingDB's records for doi:10.1016/0014-2999(96)00088-x (University Clinic For Psychiatry, 1996):
Values joined by “and” are separate entries in the source; they are usually repeats but may differ in a detail not shown here. Identical values can stand only once.

Tests used:
[1] = target: T1, Gamma-aminobutyric acid receptor subunit alpha-1 (Homo sapiens, UniProt P14867)
T1 sequence (P14867 whole entry): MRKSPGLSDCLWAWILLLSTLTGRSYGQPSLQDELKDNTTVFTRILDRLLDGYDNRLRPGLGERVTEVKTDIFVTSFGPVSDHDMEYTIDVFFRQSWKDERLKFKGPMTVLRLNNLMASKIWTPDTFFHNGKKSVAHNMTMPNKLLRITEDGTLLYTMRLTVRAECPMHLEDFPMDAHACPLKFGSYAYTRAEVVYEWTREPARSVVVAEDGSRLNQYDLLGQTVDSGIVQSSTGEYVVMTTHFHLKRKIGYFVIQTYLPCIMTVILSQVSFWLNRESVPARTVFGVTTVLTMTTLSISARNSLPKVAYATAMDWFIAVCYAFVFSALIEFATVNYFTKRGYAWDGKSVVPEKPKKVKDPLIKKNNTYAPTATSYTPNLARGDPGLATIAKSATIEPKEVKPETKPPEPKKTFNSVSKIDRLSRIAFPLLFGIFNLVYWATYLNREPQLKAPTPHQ

[2] = target: Gamma-aminobutyric acid receptor subunit alpha-4 (Homo sapiens, UniProt P48169)
Chain of Gamma-aminobutyric acid receptor subunit alpha-4 (P48169 whole entry): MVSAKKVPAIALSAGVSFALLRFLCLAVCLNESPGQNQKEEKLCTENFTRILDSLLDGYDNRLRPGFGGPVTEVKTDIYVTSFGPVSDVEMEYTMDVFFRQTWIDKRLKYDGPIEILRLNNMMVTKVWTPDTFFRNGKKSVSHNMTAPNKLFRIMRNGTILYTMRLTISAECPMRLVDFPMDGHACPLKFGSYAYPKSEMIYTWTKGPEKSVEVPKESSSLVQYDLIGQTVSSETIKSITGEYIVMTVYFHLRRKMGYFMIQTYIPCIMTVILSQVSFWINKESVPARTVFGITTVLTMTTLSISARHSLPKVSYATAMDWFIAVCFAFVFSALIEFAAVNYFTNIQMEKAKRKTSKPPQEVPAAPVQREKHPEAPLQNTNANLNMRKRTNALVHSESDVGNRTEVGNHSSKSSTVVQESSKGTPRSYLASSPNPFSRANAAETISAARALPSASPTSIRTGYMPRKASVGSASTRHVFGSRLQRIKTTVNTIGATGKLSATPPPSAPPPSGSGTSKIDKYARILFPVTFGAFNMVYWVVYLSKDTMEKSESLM

## COc1ccc(-n2[nH]c3c4c(ncc3c2=O)CCCCC4)cc1 [CGS-20625]
[1]
  Ki: 0.15 nM
[2]
  Ki: 22.4 nM and 77 nM

## CC(C)(C)OC(=O)c1ncn2c1C1CCCN1C(=O)c1c(Br)cccc1-2 (centres undefined) [8-Bromo-7-oxo-3b,4,5,6-tetrahydro-7H-2,6a,11b-triaza-benzo[g]cyclopenta[e]azulene-3-carboxylic acid tert-butyl ester]
[1]
  Ki: 0.45 nM
[2]
  Ki: 36 nM and 22.5 nM

## COc1ccc(-n2[nH]c3c(cnc4ccccc43)c2=O)cc1 [2-(4-Methoxy-phenyl)-2,5-dihydro-pyrazolo[4,3-c]quinolin-3-one (CGS 9895)]
[1]
  Ki: 0.09 nM
[2]
  Ki: 4 nM

## CCOC(=O)c1cc2c(cn1)[nH]c1ccccc12
[1]
  Ki: 0.6 nM

## Cc1nnc2ccc(-c3cccc(C(F)(F)F)c3)nn12
[1]
  Ki: 65 nM
[2]
  Ki: > 10000 nM

## CNC(=O)c1cc2c(cn1)[nH]c1ccccc12 [CAS_4375]
[1]
  Ki: 160 nM
[2]
  Ki: > 10000 nM

## CCOC(=O)c1ncn2c1CN(C)C(=O)c1cc(N=[N+]=[N-])ccc1-2 [RO-154513]
[1]
  Ki: 8.1 nM

## COCc1c(C(=O)OC(C)C)ncc2[nH]c3ccc(OCc4ccccc4)cc3c12
[2]
  Ki: 1060 nM

## O=c1c2cnc3ccccc3c2[nH]n1-c1ccc(Cl)cc1
[1]
  Ki: 0.26 nM
[2]
  Ki: 59 nM

## COC(=O)c1cc2c(cn1)[nH]c1ccccc12
[1]
  Ki: 0.5 nM
[2]
  Ki: 640 nM

## O=c1c2cnc3ccccc3c2[nH]n1-c1ccccc1
[1]
  Ki: 0.11 nM
[2]
  Ki: 11.9 nM

## CCCOC(=O)c1cc2c(cn1)[nH]c1ccccc12 [CAS_123662]
[1]
  Ki: 7.1 nM
[2]
  Ki: 922 nM

## CCc1c(C(=O)OC)ncc2[nH]c3cc(OC)c(OC)cc3c12 [NSC_104999]
[1]
  Ki: 7.5 nM
[2]
  Ki: 11.3 nM and 20 nM

## Cc1ccc(-c2nc3ccc(C)cn3c2CC(=O)N(C)C)cc1 [Ambien]
[2]
  Ki: > 10000 nM
